ChEMBL document CHEMBL1201862, “PubChem BioAssay data set” (2004)
Active and inactive are the calls of the source.

What was measured:
Cytochrome P450 2C19 = Cytochrome P450 2C19 (Homo sapiens, UniProt P33261); test: Cytochrome panel assay with activity outcomes. Panel member name: p450-cyp2c19 Compounds with AC50 equal or less than 10 uM are considered active; type: functional; conditions: read-out: AC50
Cytochrome P450 2C9 = Cytochrome P450 2C9 (Homo sapiens, UniProt P11712)
Cytochrome P450 3A4 = Cytochrome P450 3A4 (Homo sapiens, UniProt P08684);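 further: CYP3A4 tested as one member of a cytochrome P450 panel screen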
[1] = target: T1, Zinc finger protein mex-5 (Caenorhabditis elegans, UniProt Q9XUB2); test: potency of MEX-5 RNA-binding blockers – biochemical, C. elegans, fluorescence polarization, dose response (AID 1960)
T1 sequence (Q9XUB2 whole entry): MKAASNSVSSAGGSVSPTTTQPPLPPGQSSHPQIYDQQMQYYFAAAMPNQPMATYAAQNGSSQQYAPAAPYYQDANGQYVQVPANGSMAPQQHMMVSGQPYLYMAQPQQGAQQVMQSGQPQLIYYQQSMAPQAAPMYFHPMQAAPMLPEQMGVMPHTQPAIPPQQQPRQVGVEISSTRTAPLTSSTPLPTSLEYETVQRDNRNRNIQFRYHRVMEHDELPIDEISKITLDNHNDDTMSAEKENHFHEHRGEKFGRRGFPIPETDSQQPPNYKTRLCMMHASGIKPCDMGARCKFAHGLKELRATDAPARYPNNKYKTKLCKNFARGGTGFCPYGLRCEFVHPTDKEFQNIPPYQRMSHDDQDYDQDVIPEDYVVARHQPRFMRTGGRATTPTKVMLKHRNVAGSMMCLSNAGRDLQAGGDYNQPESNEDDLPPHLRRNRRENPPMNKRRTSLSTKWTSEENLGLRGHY

[2] = target: Peroxisome proliferator-activated receptor gamma/Nuclear receptor coactivator 2 (Homo sapiens, UniProt P37231); test: (§1) TR-FRET dose response biochemical High Throughput Screening assay for agonists of the steroid receptor coactivator 2 (SRC-2) recruitment by the peroxisome proliferator-activated receptor gamma (PPAR gamma): non-selective agonists. [Related pubchem assays: 1297, 1032 ]; type: functional
[3] = target: T2, Corticotropin-releasing factor receptor 2/Corticotropin-releasing factor-binding protein (Homo sapiens, UniProt P24387+Q13324); test: Dose Response confirmation of uHTS hits for small molecule antagonists of the CRF-binding protein and CRF-R2 receptor complex.; type: functional; conditions: read-out: IC50_Mean
T2 sequence (Q13324 whole entry): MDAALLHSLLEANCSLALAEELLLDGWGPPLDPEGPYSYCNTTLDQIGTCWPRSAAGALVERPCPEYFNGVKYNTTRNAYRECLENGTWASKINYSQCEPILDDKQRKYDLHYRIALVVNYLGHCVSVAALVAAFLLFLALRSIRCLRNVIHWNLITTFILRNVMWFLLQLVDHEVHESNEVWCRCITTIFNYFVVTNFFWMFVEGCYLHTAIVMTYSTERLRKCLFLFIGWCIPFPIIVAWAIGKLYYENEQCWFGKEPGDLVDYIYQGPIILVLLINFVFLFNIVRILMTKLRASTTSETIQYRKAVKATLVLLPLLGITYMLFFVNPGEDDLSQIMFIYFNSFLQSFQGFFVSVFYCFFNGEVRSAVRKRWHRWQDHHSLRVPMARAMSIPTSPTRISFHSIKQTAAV
T2 sequence (P24387 whole entry): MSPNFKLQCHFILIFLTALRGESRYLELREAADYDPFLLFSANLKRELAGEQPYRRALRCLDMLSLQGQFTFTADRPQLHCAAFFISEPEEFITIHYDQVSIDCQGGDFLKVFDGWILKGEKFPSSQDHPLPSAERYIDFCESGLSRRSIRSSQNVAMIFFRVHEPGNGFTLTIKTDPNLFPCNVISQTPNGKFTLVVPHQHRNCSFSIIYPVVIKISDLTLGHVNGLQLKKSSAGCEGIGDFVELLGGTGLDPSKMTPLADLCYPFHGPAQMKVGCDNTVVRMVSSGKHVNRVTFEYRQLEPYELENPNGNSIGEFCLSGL

[4] = target: Peroxisome proliferator-activated receptor gamma/Nuclear receptor coactivator 1 (Homo sapiens, UniProt P37231); test: as §1, with “1 (SRC-1)” for “2 (SRC-2)”, “assays (depositor defined):AID1300, AID1808, AID504735, AID631]” for “assays: 1297, 1032 ]”; type: protein assay
[5] = target: T3, RNA-binding protein pos-1 (Caenorhabditis elegans, UniProt G5EF15); test: disruptors of C. elegans POS-1 RNA interaction – biochemical, fluorescence polarization, dose response (AID 1964);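 further: purified POS-1 fused to maltose binding protein made in E. coli; potency of compounds blocking POS-1 binding to fluorescent RNA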
T3 sequence (G5EF15 whole entry): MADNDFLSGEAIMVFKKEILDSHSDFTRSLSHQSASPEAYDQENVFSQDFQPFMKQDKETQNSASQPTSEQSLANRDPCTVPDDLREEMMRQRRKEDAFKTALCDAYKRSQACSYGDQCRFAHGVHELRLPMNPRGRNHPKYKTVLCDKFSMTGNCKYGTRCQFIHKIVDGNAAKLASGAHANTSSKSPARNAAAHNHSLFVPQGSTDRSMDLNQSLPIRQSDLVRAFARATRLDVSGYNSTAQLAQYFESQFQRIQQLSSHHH

[6] = target: Peroxisome proliferator-activated receptor gamma/Nuclear receptor coactivator 3 (Homo sapiens, UniProt P37231); test: as §1, with “3 (SRC-3)” for “2 (SRC-2)”, “1301 (Confirmation screen.), 1048 (Primary screen.)]” for “1297, 1032 ]”; type: functional
[7] = target: T2, Corticotropin-releasing factor receptor 2/Corticotropin-releasing factor-binding protein; test: activators of CRF receptor 2 with binding protein – uHTS hits, confirmation (AID 602473); type: functional; conditions: read-out: EC50_Mean
[8] = target: T4, Short transient receptor potential channel 4 (Mus musculus, UniProt Q9QUQ5); test: calcium entry via TRPC4 opening agents – cell-based, HEK293 TRPC4/mu-opioid, Fluo-4 calcium, dose response (AID 434937); type: functional
T4 sequence (Q9QUQ5 whole entry): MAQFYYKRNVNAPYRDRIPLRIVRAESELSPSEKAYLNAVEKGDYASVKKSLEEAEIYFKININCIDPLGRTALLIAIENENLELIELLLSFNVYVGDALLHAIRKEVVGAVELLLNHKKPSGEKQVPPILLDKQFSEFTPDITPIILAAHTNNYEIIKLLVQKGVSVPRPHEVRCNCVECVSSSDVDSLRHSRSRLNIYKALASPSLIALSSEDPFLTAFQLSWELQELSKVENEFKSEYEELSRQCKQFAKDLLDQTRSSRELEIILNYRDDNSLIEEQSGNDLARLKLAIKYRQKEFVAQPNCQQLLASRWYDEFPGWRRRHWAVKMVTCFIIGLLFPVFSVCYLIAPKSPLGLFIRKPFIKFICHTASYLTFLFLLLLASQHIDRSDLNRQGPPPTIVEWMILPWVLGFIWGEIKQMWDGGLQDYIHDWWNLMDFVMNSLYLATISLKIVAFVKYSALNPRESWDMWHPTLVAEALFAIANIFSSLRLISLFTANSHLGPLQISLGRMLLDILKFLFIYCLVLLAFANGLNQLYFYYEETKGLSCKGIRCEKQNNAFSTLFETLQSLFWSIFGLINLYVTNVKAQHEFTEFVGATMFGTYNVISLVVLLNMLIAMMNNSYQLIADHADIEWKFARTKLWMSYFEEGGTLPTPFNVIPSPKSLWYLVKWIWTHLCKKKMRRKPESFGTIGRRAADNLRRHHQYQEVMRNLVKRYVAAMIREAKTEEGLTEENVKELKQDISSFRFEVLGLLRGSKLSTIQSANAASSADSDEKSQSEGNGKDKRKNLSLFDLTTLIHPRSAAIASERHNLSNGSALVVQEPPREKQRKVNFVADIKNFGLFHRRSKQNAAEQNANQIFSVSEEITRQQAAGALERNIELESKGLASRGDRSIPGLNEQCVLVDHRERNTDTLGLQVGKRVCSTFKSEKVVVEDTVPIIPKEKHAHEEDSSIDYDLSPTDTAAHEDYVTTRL

[9] = Vero E6 cell cytotoxicity, dose response, cytotoxicity control for non-replicating M. tuberculosis project, secondary assay (AID 492998); type: functional, VeroE6; conditions: Vero C1008
Protein RecA = target: T5, Protein RecA (Mycobacterium tuberculosis, UniProt P9WHJ3); test: Fluorescence Cell-Free Homogeneous Dose Retest to Identify Inhibitors of RecA-Intein Splicing Activity. [Related pubchem assays (depositor defined):AID2097, AID2223, AID489010, AID492950]; type: functional
T5 sequence (P9WHJ3 whole entry): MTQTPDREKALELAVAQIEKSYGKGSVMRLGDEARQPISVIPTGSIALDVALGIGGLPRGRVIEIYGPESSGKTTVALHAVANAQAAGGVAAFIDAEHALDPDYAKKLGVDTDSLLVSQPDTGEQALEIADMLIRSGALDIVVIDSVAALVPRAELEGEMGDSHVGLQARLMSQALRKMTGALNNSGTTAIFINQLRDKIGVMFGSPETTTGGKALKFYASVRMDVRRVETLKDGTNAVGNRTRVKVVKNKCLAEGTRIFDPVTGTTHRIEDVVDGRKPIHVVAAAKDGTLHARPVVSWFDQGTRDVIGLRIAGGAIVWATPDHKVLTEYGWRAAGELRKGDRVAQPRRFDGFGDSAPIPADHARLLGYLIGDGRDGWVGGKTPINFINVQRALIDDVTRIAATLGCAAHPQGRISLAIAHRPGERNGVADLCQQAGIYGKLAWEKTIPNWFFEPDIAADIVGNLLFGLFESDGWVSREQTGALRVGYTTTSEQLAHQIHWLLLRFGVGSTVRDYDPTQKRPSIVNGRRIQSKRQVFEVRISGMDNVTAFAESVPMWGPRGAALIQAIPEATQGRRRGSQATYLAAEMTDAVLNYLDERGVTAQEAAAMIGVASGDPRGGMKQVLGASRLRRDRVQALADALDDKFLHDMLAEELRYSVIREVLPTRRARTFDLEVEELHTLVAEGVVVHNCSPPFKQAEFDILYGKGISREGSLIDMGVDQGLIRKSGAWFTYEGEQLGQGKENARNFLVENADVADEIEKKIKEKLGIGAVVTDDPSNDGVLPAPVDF

[10] = THP-1 cell cytotoxicity, dose response, cytotoxicity control for non-replicating M. tuberculosis project (AID 489025); type: functional
Cytochrome P450 1A2 = target: T6, Cytochrome P450 1A2 (Homo sapiens, UniProt P05177);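 further: PubChem cytochrome P450 panel assay, CYP1A2 panel member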
T6 sequence (P05177 whole entry): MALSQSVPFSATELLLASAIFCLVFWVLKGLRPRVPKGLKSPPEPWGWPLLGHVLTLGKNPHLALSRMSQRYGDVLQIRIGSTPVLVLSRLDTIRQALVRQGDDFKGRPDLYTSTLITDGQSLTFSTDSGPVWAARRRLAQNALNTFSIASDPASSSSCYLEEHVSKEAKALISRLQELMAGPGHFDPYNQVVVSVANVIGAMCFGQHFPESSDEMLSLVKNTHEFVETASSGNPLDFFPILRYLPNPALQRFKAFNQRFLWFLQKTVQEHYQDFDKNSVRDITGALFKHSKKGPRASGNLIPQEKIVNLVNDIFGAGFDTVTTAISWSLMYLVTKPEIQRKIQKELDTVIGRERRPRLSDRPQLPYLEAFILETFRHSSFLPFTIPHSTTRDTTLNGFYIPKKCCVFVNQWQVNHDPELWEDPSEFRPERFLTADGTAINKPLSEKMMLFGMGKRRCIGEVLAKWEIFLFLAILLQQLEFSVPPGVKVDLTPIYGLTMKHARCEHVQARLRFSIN

cells = type: functional
[11] = microbe, parasite or virus in culture; type: functional; conditions: Mycobacterium tuberculosis

Sequence of Peroxisome proliferator-activated receptor gamma/Nuclear receptor coactivator 3 (P37231 whole entry): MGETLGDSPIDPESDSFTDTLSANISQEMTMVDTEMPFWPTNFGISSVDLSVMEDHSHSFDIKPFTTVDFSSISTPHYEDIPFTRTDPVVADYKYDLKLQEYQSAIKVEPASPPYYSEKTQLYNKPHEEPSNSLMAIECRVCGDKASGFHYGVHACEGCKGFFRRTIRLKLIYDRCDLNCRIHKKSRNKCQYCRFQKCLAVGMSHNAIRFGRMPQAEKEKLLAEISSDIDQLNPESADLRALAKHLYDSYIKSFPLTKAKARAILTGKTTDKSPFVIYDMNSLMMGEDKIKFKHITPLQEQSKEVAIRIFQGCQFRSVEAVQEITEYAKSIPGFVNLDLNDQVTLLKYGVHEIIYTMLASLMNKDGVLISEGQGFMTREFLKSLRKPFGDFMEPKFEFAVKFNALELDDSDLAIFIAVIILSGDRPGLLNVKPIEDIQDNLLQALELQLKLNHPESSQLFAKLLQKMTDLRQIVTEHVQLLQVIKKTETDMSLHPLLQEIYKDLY
Sequence of Peroxisome proliferator-activated receptor gamma/Nuclear receptor coactivator 3 (Q9Y6Q9 whole entry, further chain): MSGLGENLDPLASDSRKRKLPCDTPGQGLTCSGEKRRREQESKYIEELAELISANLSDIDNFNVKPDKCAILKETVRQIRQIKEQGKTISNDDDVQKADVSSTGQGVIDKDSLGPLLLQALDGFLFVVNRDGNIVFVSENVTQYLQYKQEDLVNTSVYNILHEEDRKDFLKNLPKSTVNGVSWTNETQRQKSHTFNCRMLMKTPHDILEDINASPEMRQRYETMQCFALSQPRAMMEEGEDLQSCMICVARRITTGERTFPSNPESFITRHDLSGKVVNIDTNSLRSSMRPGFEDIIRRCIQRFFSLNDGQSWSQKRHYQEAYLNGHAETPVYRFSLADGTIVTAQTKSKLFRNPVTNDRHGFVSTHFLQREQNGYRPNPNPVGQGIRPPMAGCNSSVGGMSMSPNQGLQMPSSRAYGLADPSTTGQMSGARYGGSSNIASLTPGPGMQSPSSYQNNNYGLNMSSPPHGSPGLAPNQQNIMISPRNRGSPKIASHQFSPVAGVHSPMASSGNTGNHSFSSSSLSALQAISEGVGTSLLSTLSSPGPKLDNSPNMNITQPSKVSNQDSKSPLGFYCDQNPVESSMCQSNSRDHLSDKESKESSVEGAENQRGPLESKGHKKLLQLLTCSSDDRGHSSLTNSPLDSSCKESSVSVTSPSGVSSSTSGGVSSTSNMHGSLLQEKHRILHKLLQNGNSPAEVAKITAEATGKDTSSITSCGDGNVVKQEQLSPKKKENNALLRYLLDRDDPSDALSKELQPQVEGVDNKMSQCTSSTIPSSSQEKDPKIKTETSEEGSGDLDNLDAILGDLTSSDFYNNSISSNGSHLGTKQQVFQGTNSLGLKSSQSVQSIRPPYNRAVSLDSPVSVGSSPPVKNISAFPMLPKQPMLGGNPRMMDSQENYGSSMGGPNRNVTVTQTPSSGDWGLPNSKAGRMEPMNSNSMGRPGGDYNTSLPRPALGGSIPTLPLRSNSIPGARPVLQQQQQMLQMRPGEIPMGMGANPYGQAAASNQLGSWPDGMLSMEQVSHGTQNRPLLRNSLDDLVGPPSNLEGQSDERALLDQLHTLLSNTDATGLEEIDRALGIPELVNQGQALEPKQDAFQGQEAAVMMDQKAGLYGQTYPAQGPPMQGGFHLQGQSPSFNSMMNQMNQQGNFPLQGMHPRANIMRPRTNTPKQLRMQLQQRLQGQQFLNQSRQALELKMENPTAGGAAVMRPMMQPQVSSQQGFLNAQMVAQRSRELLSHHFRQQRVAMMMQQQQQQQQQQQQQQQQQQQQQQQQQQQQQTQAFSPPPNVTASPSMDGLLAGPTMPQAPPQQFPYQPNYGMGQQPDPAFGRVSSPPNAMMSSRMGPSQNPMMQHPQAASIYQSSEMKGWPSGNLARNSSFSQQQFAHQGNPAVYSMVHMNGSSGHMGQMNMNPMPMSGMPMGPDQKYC
Sequence of Peroxisome proliferator-activated receptor gamma/Nuclear receptor coactivator 1 (P37231 whole entry, the tested form may be a part): as the sequence (P37231 whole entry) above
Sequence of Peroxisome proliferator-activated receptor gamma/Nuclear receptor coactivator 1 (Q15788 whole entry, further chain, the tested form may be a part): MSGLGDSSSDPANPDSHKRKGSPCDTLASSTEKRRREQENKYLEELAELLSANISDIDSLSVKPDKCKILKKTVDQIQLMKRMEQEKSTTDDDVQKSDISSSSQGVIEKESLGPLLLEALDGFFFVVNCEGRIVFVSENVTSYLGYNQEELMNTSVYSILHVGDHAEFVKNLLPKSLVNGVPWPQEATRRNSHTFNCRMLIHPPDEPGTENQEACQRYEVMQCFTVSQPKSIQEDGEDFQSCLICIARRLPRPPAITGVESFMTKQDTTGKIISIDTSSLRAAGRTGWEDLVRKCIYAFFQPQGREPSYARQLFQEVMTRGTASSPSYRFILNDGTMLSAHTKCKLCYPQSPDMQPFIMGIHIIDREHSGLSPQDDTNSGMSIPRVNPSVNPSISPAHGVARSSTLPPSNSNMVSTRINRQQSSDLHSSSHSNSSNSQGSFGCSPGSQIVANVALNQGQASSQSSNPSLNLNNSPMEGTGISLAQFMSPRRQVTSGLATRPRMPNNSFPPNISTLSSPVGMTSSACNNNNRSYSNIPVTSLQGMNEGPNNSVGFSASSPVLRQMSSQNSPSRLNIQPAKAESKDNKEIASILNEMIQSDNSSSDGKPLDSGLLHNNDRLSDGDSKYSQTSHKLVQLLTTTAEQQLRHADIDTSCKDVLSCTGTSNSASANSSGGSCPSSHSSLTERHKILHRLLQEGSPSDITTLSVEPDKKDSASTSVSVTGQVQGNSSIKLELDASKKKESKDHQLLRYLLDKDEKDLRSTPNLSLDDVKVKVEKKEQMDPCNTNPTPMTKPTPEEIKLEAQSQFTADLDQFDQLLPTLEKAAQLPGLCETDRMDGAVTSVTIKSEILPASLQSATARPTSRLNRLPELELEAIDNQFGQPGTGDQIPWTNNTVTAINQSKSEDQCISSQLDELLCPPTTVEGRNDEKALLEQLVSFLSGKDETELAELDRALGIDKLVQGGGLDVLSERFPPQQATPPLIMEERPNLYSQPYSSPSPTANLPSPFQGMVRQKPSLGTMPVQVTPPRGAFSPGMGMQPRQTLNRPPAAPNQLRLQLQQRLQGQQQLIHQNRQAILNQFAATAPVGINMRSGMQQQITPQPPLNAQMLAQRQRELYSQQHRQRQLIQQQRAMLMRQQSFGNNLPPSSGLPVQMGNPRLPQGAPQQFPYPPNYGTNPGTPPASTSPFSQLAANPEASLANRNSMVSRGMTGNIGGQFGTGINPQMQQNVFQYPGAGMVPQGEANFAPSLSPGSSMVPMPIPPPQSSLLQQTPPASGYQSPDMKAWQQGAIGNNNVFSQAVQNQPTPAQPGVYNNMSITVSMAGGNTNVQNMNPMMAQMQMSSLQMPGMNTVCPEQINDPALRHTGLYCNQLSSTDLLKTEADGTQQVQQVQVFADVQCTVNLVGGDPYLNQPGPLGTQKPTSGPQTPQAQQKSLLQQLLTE
Sequence of Cytochrome P450 3A4 (P08684 whole entry): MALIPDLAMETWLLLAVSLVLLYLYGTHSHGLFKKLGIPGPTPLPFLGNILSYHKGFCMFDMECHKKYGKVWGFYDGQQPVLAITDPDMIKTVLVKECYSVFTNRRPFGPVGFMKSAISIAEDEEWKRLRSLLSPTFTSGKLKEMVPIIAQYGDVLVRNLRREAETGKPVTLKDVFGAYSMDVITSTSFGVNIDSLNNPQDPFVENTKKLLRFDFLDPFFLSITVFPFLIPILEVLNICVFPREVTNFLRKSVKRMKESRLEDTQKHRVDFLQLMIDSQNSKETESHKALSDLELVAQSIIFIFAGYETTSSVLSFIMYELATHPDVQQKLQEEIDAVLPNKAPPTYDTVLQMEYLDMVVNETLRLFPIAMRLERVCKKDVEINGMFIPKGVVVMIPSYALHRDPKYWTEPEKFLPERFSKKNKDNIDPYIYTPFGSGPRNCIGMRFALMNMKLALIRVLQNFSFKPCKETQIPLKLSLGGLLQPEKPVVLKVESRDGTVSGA
Sequence of Cytochrome P450 2C19 (P33261 whole entry): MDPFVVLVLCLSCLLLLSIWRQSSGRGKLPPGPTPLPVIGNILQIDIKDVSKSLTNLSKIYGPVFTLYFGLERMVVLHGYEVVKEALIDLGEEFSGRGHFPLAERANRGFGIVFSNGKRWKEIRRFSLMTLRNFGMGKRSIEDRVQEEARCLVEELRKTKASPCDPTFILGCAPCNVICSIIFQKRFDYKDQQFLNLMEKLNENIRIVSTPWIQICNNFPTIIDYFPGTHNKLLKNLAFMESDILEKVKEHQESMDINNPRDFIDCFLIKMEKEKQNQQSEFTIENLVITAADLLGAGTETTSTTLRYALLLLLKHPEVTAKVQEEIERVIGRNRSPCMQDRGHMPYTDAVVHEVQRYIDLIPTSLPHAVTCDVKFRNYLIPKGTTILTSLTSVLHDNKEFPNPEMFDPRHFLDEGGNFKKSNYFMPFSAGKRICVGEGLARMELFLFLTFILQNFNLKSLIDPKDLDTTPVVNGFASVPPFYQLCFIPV

For `CCCC(=O)N1CCN(c2ccc(NC(=O)c3sc4ccccc4c3Cl)cc2)CC1`, the AC50 (Cytochrome P450 2C19) was 0.158 µM (inconclusive), the AC50 (Cytochrome P450 2C9) was 5.01 µM (inconclusive) and the AC50 (Cytochrome P450 3A4) was “inconclusive”.

With `C=CCOc1ccc(C2C(C(=O)c3ccco3)=C(O)C(=O)N2c2nnc(C)s2)cc1` (stereo not drawn) the EC50 [1] was > 300 µM (not active), the EC50 [2] was > 79.4 µM (not active) and the IC50 [3] was > 47.1 µM (inactive). The EC50 [4] was > 79.4 µM (inactive), the EC50 [5] was > 300 µM (not active) and the EC50 [6] was > 79.4 µM (not active). For the same compound, the EC50 [7] was > 53 µM (inactive).

For `O=C(CNS(=O)(=O)c1ccc2ccccc2c1)NCCc1ccccn1`, the EC50 [8] was 9.44 µM (active).

For `O=[N+]([O-])c1cncc([N+](=O)[O-])c1Nc1cccc(O)c1`, the CC50 [9] was 15.7 µM (active), the EC50 (Protein RecA) was 3.28 µM (active) and the CC50 [10] was 27 µM (active).

With `CCn1c(/C=C2/C(=O)N(C)c3ccccc32)nc2ccccc2c1=O` the AC50 (Cytochrome P450 3A4) was “inconclusive”.

With `COc1cc(OC)cc(C(=O)NC2CCCN(Cc3ccc(Cl)cc3)C2)c1` (stereo not drawn) the EC50 [8] was 5.96 µM (active).

For `O=C(OC1CCN(c2ncc(C(F)(F)F)cc2Cl)CC1)c1cccc(C(F)(F)F)c1`, the AC50 (Cytochrome P450 2C19) was 8.91 µM (inconclusive), the AC50 (Cytochrome P450 2C9) was 0.2 µM (inconclusive) and the AC50 (Cytochrome P450 3A4) was “inconclusive”.

For `CCn1c(=O)cc(SCC(=O)N2CCN(c3ccccn3)CC2)c2ccccc21`, the EC50 [2] was > 79.4 µM (not active), the EC50 [4] was > 79.4 µM (inactive) and the EC50 [6] was > 79.4 µM (not active).

For `Cc1ccc(Cn2c(SCCN3CCCCC3)nc3c2c(=O)n(C)c(=O)n3C)cc1`, the EC50 [8] was 11.9 µM (active).

For `CCc1cc2cc(C(=O)Nc3ccc(F)cc3)sc2s1`, the EC50 [2] was 57.1 µM (not active), the EC50 [4] was > 79.4 µM (inactive) and the EC50 [6] was > 79.4 µM (not active).

With `O=C(c1ccc(F)cc1)C1CCN(CCCCc2ccccc2)CC1` the AC50 (Cytochrome P450 1A2) was 31.6 µM (inconclusive) and the AC50 (Cytochrome P450 3A4) was “inconclusive”.

In the case of `Cc1cc(/C=N\NC(=O)c2cccs2)c(C)n1-c1ccc2ncccc2c1`, the AC50 (Cytochrome P450 1A2) is reported as 39.8 µM (inconclusive), the IC50 (cells) is reported as 34 µM (active) and the CC50 [11] is reported as > 40 µM (active). For the same compound, the AC50 (Cytochrome P450 3A4) was “inconclusive”.

For `Cn1c(N2CCNCC2)nc2ccccc21`, the EC50 [8] was 0.149 µM (active).
